Common to all, as to format: cell-based
The test system of assay [1] is Proteus mirabilis. Kind of assay: MIC against Gram-negative bacteria: Proteus mirabilis. The settings on record: 5×10^5 CFU/mL; for MIC against P. mirabilis: 10 h cultivation at 37° C. The essentials:
(§1)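 The recombinant human-originated EGF domain proteins were serially diluted two-fold against bacteria at 5×10^5 CFU/mL in LB medium. After shaken incubation at 37° C, the lowest concentration with no bacterial growth was recorded as the MIC.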

Assay [2] has as its system E. coli DH5α. Kind of assay: Antibacterial activity: MIC and growth curve against E. coli DH5α in 96-well plate. The settings on record: minimal inhibitory concentration against E. coli DH5α; 96-well plate, 5×10^5 CFU/mL, 37° C., judged after 8 h. The essentials: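 MIC taken as lowest protein level with no bacterial growth, tracked by A600 every 30 min during 37 °C, 175 rpm culture. Two-fold protein series 50-12.5 μg/mL final, triplicate wells, against 5×10^5 CFU/mL of LB-washed mid-log cells.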

Assay [3] relates to Citrobacter diversus. In words: MIC against Gram-negative bacteria: Citrobacter diversus. Particulars: 5×10^5 CFU/mL; for MIC against C. diversus: 10 h cultivation at 37° C. The essentials:
as §1

Assay [4] deals with E. coli BL21. In words: MIC against Gram-negative bacteria: E. coli BL21. Particulars: 5×10^5 CFU/mL; for MIC against E. coli BL21: 10 h cultivation at 37° C. The method in brief: as §1
For assay [5], the system named is Pseudomonas aeruginosa. Kind of assay: MIC against Gram-negative bacteria: Pseudomonas aeruginosa. The settings on record: 5×10^5 CFU/mL; for MIC against P. aeruginosa: 10 h cultivation at 37° C. The method in brief:
as §1

The test system of assay [6] is Proteus vulgaris. Kind of assay: MIC against Gram-negative bacteria: Proteus vulgaris. The settings on record: 5×10^5 CFU/mL; for MIC against P. vulgaris: 10 h cultivation at 37° C. The essentials:
as §1

The test system of assay [7] is Enterobacter cloacae. In words: MIC against Gram-negative bacteria: Enterobacter cloacae. The settings on record: 5×10^5 CFU/mL; for MIC against E. cloacae: 10 h cultivation at 37° C. The method in brief: as §1
The subject of assay [8] is Aeromonas hydrophila. In words: MIC against Gram-negative bacteria: Aeromonas hydrophila. The settings on record: 5×10^5 CFU/mL; for MIC against A. hydrophila: 10 h cultivation at 37° C. The method in brief:
as §1

Assay [9] deals with Serratia marcescens. In words: MIC against Gram-negative bacteria: Serratia marcescens. Particulars: 5×10^5 CFU/mL; for MIC against S. marcescens: 10 h cultivation at 37° C. The method in brief: as §1
Assay [10] has as its system Klebsiella pneumonia. In words: MIC against Gram-negative bacteria: Klebsiella pneumonia. Particulars: 5×10^5 CFU/mL; for MIC against K. pneumonia: 10 h cultivation at 37° C. The essentials: as §1
Assay [11] deals with Moraxella catarrhalis. In words: MIC against Gram-negative bacteria: Moraxella catarrhalis. The settings on record: 5×10^5 CFU/mL; for MIC against M. catarrhalis: 10 h cultivation at 37° C. The method in brief: as §1

Broadly, the MIC is the least concentration at which growth counts as inhibited. A higher MIC goes with weaker potency. Turning to “PRT637 (DIDECVNNTVCDSHGFCDNTAGSFRCLCYQGFQAPQDG; listed as Homo sapiens)”, in [1] (96-well plate, 37° C., 10 h), the “MIC P. mirabilis” value came to 12.5 µg/mL. In addition, in [2], the MIC is 25 µg/mL. Moreover, in assay [3] (96-well plate, 37° C., 10 h), the “MIC C. diversus” value is 50 µg/mL. Besides, the “MIC E. coli BL21” value in assay [4] (96-well plate, 37° C., 10 h) came to 12.5 µg/mL. Also, the “MIC P. aeruginosa” value in assay [5] (96-well plate, 37° C., 10 h) came to 25 µg/mL. Also, the “MIC P. vulgaris” value in assay [6] (96-well plate, 37° C., 10 h) amounted to 25 µg/mL. In [7] (96-well plate, 37° C., 10 h), the “MIC E. cloacae” value came to 12.5 µg/mL. In addition, the “MIC A. hydrophila” value in [8] (96-well plate, 37° C., 10 h) came out at 25 µg/mL. The “MIC S. marcescens” value in assay [9] (96-well plate, 37° C., 10 h) was 50 µg/mL. Further, in assay [10] (96-well plate, 37° C., 10 h), the “MIC K. pneumonia” value is 50 µg/mL. In [11] (96-well plate, 37° C., 10 h), the “MIC M. catarrhalis” value came out at 25 µg/mL.

Regarding “PRT1454 (DVNECFYEELNACSGRELCANLEGSYWCVCHQEAPATSPRKLNLEWEDCP; listed as Homo sapiens)”, the “MIC against P. mirabilis” value in assay [1] (Proteus mirabilis) worked out at 12.5 µg/mL. In addition, the minimum inhibitory concentration (MIC) in assay [2] is 25 µg/mL. Further, the “MIC against C. diversus” value in assay [3] (Citrobacter diversus) is 12.5 µg/mL. Moreover, the “MIC against E. coli BL21” value in assay [4] (E. coli BL21) worked out at 12.5 µg/mL. The “MIC against P. aeruginosa” value in [5] (Pseudomonas aeruginosa) is 12.5 µg/mL. Also, in assay [6] (Proteus vulgaris), the “MIC against P. vulgaris” value is 25 µg/mL. The “MIC against E. cloacae” value in assay [7] (Enterobacter cloacae) was 50 µg/mL. Moreover, the “MIC against A. hydrophila” value in assay [8] (Aeromonas hydrophila) amounted to 25 µg/mL. Besides, the “MIC against S. marcescens” value in [9] (Serratia marcescens) was determined as 50 µg/mL. Besides, the “MIC against K. pneumonia” value in assay [10] (Klebsiella pneumonia) was 25 µg/mL. In addition, the “MIC against M. catarrhalis” value in [11] (Moraxella catarrhalis) was determined as 50 µg/mL.

Turning to “PRT1477 (DIDECSENMCAQLCVNYPGGYTCYCDGKKGFKLAQDQKSCE; listed as Homo sapiens)”, in assay [1] (Proteus mirabilis), the “MIC against P. mirabilis” value amounted to 25 µg/mL. The substance also returned a minimum inhibitory concentration (MIC) in assay [2] of 50 µg/mL. Besides, the “MIC against C. diversus” value in [3] (Citrobacter diversus) was determined as 25 µg/mL. In addition, the “MIC against E. coli BL21” value in assay [4] (E. coli BL21) worked out at 12.5 µg/mL. Further, in assay [5] (Pseudomonas aeruginosa), the “MIC against P. aeruginosa” value is 50 µg/mL. Moreover, the “MIC against P. vulgaris” value in assay [6] (Proteus vulgaris) amounted to 50 µg/mL. The “MIC against E. cloacae” value in assay [7] (Enterobacter cloacae) turned out to be 25 µg/mL. In addition, in assay [8] (Aeromonas hydrophila), the “MIC against A. hydrophila” value stood at 50 µg/mL. The “MIC against S. marcescens” value in assay [9] (Serratia marcescens) was determined as 12.5 µg/mL. Besides, the “MIC against K. pneumonia” value in assay [10] (Klebsiella pneumonia) is 12.5 µg/mL. Also, in assay [11] (Moraxella catarrhalis), the “MIC against M. catarrhalis” value is 12.5 µg/mL.

In the case of “PRT96 (AQRFCPDGSPSECHEHADCVLERDGSRSCVCAVGWAGNGILCG; listed as Homo sapiens)”, in [1] (Proteus mirabilis, 96-well plate, 37° C., 10 h), the “MIC (μg/mL) P. mirabilis” value turned out to be 12.5 µg/mL. In [2], this substance came in with an MIC of 12.5 µg/mL. For the same substance, the “MIC (μg/mL) C. diversus” value in assay [3] (Citrobacter diversus, 96-well plate, 37° C., 10 h) is 12.5 µg/mL. Moreover, the “MIC (μg/mL) E. coli BL21” value in assay [4] (E. coli BL21, 96-well plate, 37° C., 10 h) stood at 25 µg/mL. In addition, in [5] (Pseudomonas aeruginosa, 96-well plate, 37° C., 10 h), the “MIC (μg/mL) P. aeruginosa” value turned out to be 12.5 µg/mL. The “MIC (μg/mL) P. vulgaris” value in [6] (Proteus vulgaris, 96-well plate, 37° C., 10 h) is 25 µg/mL. The “MIC (μg/mL) E. cloacae” value in assay [7] (Enterobacter cloacae, 96-well plate, 37° C., 10 h) came to 12.5 µg/mL. In addition, in assay [8] (Aeromonas hydrophila, 96-well plate, 37° C., 10 h), the “MIC (μg/mL) A. hydrophila” value stood at 12.5 µg/mL. The “MIC (μg/mL) S. marcescens” value in [9] (Serratia marcescens, 96-well plate, 37° C., 10 h) was 12.5 µg/mL. Besides, in assay [10] (Klebsiella pneumonia, 96-well plate, 37° C., 10 h), the “MIC (μg/mL) K. pneumonia” value is 12.5 µg/mL. In addition, in assay [11] (Moraxella catarrhalis, 96-well plate, 37° C., 10 h), the “MIC (μg/mL) M. catarrhalis” value turned out to be 12.5 µg/mL.

Regarding “PRT1356 (KEQRCPSDCHGQGRCVDGQCICHEGFTGLDCG; listed as Homo sapiens)”, the “MIC against P. mirabilis” value in assay [1] (Proteus mirabilis) stood at 50 µg/mL. In assay [2], this substance yielded a minimum inhibitory concentration (MIC) of 12.5 µg/mL. Moreover, the “MIC against C. diversus” value in assay [3] (Citrobacter diversus) was found to be 12.5 µg/mL. In addition, in [4] (E. coli BL21), the “MIC against E. coli BL21” value was 50 µg/mL. Moreover, the “MIC against P. aeruginosa” value in assay [5] (Pseudomonas aeruginosa) was determined as 12.5 µg/mL. Moreover, in assay [6] (Proteus vulgaris), the “MIC against P. vulgaris” value amounted to 25 µg/mL. Also, the “MIC against E. cloacae” value in assay [7] (Enterobacter cloacae) stood at 25 µg/mL. The “MIC against A. hydrophila” value in assay [8] (Aeromonas hydrophila) was 25 µg/mL. For the same substance, in assay [9] (Serratia marcescens), the “MIC against S. marcescens” value stood at 12.5 µg/mL. In addition, in [10] (Klebsiella pneumonia), the “MIC against K. pneumonia” value turned out to be 50 µg/mL. The “MIC against M. catarrhalis” value in [11] (Moraxella catarrhalis) was determined as 25 µg/mL.
